Common to all, as to assay: NCI tumour cell line growth inhibition, 48 h
In experiment [1] the test system is MALME-3M melanoma.
The test system of experiment [2] is SF-539 CNS.
Experiment [3] concerns U251 CNS.
In experiment [4] the test system is OVCAR-4 ovarian.
Experiment [5] has as its system MCF7 breast.

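Exposure lasted 48 hours, with cells grown in 96-well plates and compounds tested at five concentrations. Abbreviation: GI50, concentration required for 50% inhibition of growth. At the TGI there is no net growth.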

Consider `CC1=C/C(=N/N2C(=O)/C(=C/c3ccc(Cl)cc3)N=C2c2ccccc2)CC(C)(C)C1`, for which the TGI in experiment [1] was > 100 µM; in experiment [2] it was > 100 µM; in experiment [3], 69.7 µM; in experiment [4], > 100 µM; in experiment [5], > 100 µM.

For the compound `CC(=O)Oc1ccn2nc(C)c(Br)c2c1Br`, the TGI in experiment [1] is 40.6 µM; in experiment [2], 45.7 µM; in experiment [3] it was > 100 µM; in experiment [4], 30.6 µM; in experiment [5] it was 36.1 µM.

Regarding `O=c1c2cc(Br)ccc2oc2nc3n(c(=O)c12)CCCS3`, the TGI in experiment [1], in experiment [2], in experiment [3], in experiment [4] and in experiment [5] was > 100 µM each time.

`C=C1CC/C=C(/C(=O)O)CC[C@H]2[C@@H]1CC2(C)C`: the TGI in experiment [1], in experiment [2], in experiment [3], in experiment [4] and in experiment [5] was > 100 µM in each case.

In the case of `COc1ccc(-c2cc(-c3ccc(Nc4ccnc5cc(C(F)(F)F)ccc45)cc3)[nH]c(=O)c2C#N)c2ccccc12`, the TGI was > 63.2 µM in experiment [1]; > 53.7 µM in experiment [2]; > 36.4 µM in experiment [3]; > 100 µM in experiment [4]; > 100 µM in experiment [5].

With `NC1CC2C3CCC2C1C3=O` (stereo not drawn), the TGI in experiment [1], in experiment [2], in experiment [3], in experiment [4] and in experiment [5] was > 100 µM each time.

As for `COc1nn(Cc2ccccc2F)c2ccc([N+](=O)[O-])cc12`, the TGI in experiment [1], in experiment [2], in experiment [3], in experiment [4] and in experiment [5] was > 100 µM each time.

As for `CN1CCN(CC(=O)Nc2ccc3ncnc(Nc4ccc(Oc5cccc(C(F)(F)F)c5)c(Cl)c4)c3c2)CC1`, the GI50 in experiment [1] was 1.56 µM; in experiment [2] it was 1.6 µM; in experiment [4], 1.51 µM; in experiment [5], 1.48 µM. Besides, the TGI in experiment [1] turned out to be 3.05 µM; in experiment [2], 2.99 µM; in experiment [4], 3.02 µM; in experiment [5], 3 µM.

Take `N#Cc1c(=O)c2cc([N+](=O)[O-])ccc2n2c1[nH]c1ccccc12`: the TGI in experiment [1] is 35.4 µM; in experiment [2], > 100 µM; in experiment [3], > 92.6 µM; in experiment [4], > 100 µM; in experiment [5] it was > 86.5 µM.

Consider `Cc1cccc(-c2cc(=O)c3ccc(C)nc3[nH]2)c1`, for which the TGI in experiment [1] is > 100 µM; in experiment [2], 14.6 µM; in experiment [3] it was > 100 µM; in experiment [4], > 100 µM; in experiment [5], > 100 µM.

As to `N=c1c2c3n(c4c(=O)n(-c5ccccc5)c(=S)n(c(=O)n1-c1ccccc1)c24)CCCCC3`, the TGI in experiment [1], in experiment [2], in experiment [3], in experiment [4] and in experiment [5] was > 100 µM each time.

Take `O=C1Oc2ccccc2C(=O)/C1=C/N1C(=O)/C(=C/c2ccc([N+](=O)[O-])cc2)SC1=S`: the TGI in experiment [1] is > 100 µM; in experiment [2] it was 45 µM; in experiment [3], > 100 µM; in experiment [4] it was > 100 µM; in experiment [5] it was > 100 µM.

Turning to `CCC(=O)OCc1ccc2oc(=O)c(C(=O)Oc3cncc(Cl)c3)cc2c1`, the TGI in experiment [1], in experiment [2], in experiment [3], in experiment [4] and in experiment [5] was > 100 µM in each case.

Regarding `Cc1cc(C)c2c(n1)S(=O)(=O)N(CCCN1CCN(c3cccc(C(F)(F)F)c3)CC1)/C(=C(\O)c1ccccc1)C2=O`, the TGI in experiment [1] was > 100 µM; in experiment [2] it was 98.7 µM; in experiment [3] it was > 100 µM; in experiment [4] it was 63.9 µM; in experiment [5] it was 56.7 µM.

As for `CO/N=C1\CCC2(O)C3Cc4ccc(O)c5c4C2(CCN3CC2CC2)[C@H]1O5` (stereo partly drawn), the TGI in experiment [1], in experiment [2], in experiment [3], in experiment [4] and in experiment [5] was > 100 µM in each case.

Take `COc1ccc(C(=O)N2CCN(c3ccc4c(c3)OCC(=O)N4)CC2)cc1`: the TGI in experiment [1], in experiment [2], in experiment [3], in experiment [4] and in experiment [5] was > 100 µM throughout.

Regarding `Cn1c(N2CCCC2)c(C=O)c(=O)n(C)c1=O`, the TGI in experiment [1], in experiment [2], in experiment [3], in experiment [4] and in experiment [5] was > 100 µM in each case.

Consider `COC(=O)C(NC(=O)CNC(=O)CSc1nnc(COc2ccc(Cl)cc2)n1-c1ccccc1)C(C)C` (stereo not drawn), for which the TGI was found to be 35.5 µM in experiment [1]; 31.9 µM in experiment [2]; 35.5 µM in experiment [3]; 57.1 µM in experiment [4]; 30.4 µM in experiment [5].

`C=C1C(=O)OC2/C=C(\C)C(O)CC(O)C(C)(O)CC(OC(=O)/C(C)=C/C)C12` (stereo not drawn): the TGI in experiment [1], in experiment [2], in experiment [3], in experiment [4] and in experiment [5] was > 100 µM each time.

Regarding `CCOC(=O)CCC(C(=O)OCC)n1nc2ccc(Nc3c(C)[n+]([O-])c4cc(Cl)ccc4[n+]3[O-])cc2n1` (stereo not drawn), the TGI in experiment [1], in experiment [2], in experiment [3], in experiment [4] and in experiment [5] was > 100 µM in each case.

For `CC(C)(C)c1cc(-c2ccc(-c3cc(C(C)(C)C)c(O)c(C(C)(C)C)c3)cc2)cc(C(C)(C)C)c1O`, the TGI in experiment [1], in experiment [2], in experiment [3], in experiment [4] and in experiment [5] was > 100 µM each time.

Regarding `COC(=O)c1ccc2n1C1CC3CC(CC2C3)C1`, the TGI in experiment [1], in experiment [2], in experiment [3], in experiment [4] and in experiment [5] was > 100 µM each time.

The values above are taken from PubChem BioAssay (NCI).
